From PubChem BioAssay AID2060496 (Molecular Pharmacology Branch, DTP, NCI, 2025)

System: 276233-004-R-J1-PDC complex spheroid viability
Assay: Anticancer human tumor 276233-004-R-J1-PDC patient-derived colon adenocarcinoma cell line growth inhibition [GQUAD]
Settings: for IC50: curve of first compound; for viability, T/C: stronger effect = lower value
Summary of the method: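 Multi-cell-type spheroids of tumor cells with HUVEC and mesenchymal stem cells, treated with drug combinations. Concentrations descend in half-log steps from near clinical Cmax, or from 10 microM where Cmax is unknown; viability read-out.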

[1] = second compound 0.0316 µM, first compound 0.0316 µM
[2] = second compound 0.0316 µM, first compound 0.1 µM
[3] = second compound 0.0316 µM, first compound 0.316 µM
[4] = second compound 0.0316 µM, first compound 1 µM
[5] = second compound 0.0316 µM, first compound 3.16 µM
[6] = second compound 0.0316 µM, first compound 10 µM
[7] = second compound 0.1 µM, first compound 0.0316 µM
[8] = second compound 0.1 µM, first compound 0.1 µM
[9] = second compound 0.1 µM, first compound 0.316 µM
[10] = second compound 0.1 µM, first compound 1 µM
[11] = second compound 0.1 µM, first compound 3.16 µM
[12] = second compound 0.1 µM, first compound 10 µM
[13] = second compound 0.316 µM, first compound 0.0316 µM
[14] = second compound 0.316 µM, first compound 0.1 µM
[15] = second compound 0.316 µM, first compound 0.316 µM
[16] = second compound 0.316 µM, first compound 1 µM
[17] = second compound 0.316 µM, first compound 3.16 µM
[18] = second compound 0.316 µM, first compound 10 µM
[19] = second compound 1 µM, first compound 0.0316 µM
[20] = second compound 1 µM, first compound 0.1 µM
[21] = second compound 1 µM, first compound 0.316 µM
[22] = second compound 1 µM, first compound 1 µM
[23] = second compound 1 µM, first compound 3.16 µM
[24] = second compound 1 µM, first compound 10 µM
[25] = second compound 3.16 µM, first compound 0.0316 µM
[26] = second compound 3.16 µM, first compound 0.1 µM
[27] = second compound 3.16 µM, first compound 0.316 µM
[28] = second compound 3.16 µM, first compound 1 µM
[29] = second compound 3.16 µM, first compound 3.16 µM
[30] = second compound 3.16 µM, first compound 10 µM
[31] = second compound 10 µM, first compound 0.0316 µM
[32] = second compound 10 µM, first compound 0.1 µM
[33] = second compound 10 µM, first compound 0.316 µM
[34] = second compound 10 µM, first compound 1 µM
[35] = second compound 10 µM, first compound 3.16 µM
[36] = second compound 10 µM, first compound 10 µM
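Further: spheroids exposed to drugs for seven days.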
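Wherever viability, T/C is given: 100% = DMSO vehicle control viability.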

Work on COc1cc(C2c3cc4c(cc3C(OC3OC5COC(C)OC5C(O)C3O)C3COC(=O)C23)OCO4)cc(OC)c1O (centres undefined) + Cc1cnc(CNC(=O)c2c(=O)c3ccc(N4CCCN(C)CC4)nc3n3c2sc2ccccc23)cn1 yielded an IC50 (second compound 0.0316 µM) greater than 10 µM, an IC50 (second compound 0.1 µM) greater than 10 µM and an IC50 (second compound 0.316 µM) greater than 10 µM. The IC50 (second compound 1 µM) was greater than 10 µM, the IC50 (second compound 3.16 µM) was greater than 10 µM and the IC50 (second compound 10 µM) was greater than 10 µM. The viability, T/C [1] was 83.2%, the viability, T/C [2] was 91.7% and the viability, T/C [3] was 87.8%. For the same compound, the viability, T/C [4] was 72.9%, the viability, T/C [5] was 98.6% and the viability, T/C [6] was 82.1%. It also gave a viability, T/C [7] of 97%, a viability, T/C [8] of 92.2% and a viability, T/C [9] of 76.2%. It also gave a viability, T/C [10] of 95.3%, a viability, T/C [11] of 75.5% and a viability, T/C [12] of 88%. For the same compound, the viability, T/C [13] was 85.4%, the viability, T/C [14] was 77.3% and the viability, T/C [15] was 86.9%. The viability, T/C [16] was 94.8%, the viability, T/C [17] was 73.1% and the viability, T/C [18] was 81%. For the same compound, the viability, T/C [19] was 84.8%, the viability, T/C [20] was 80.2% and the viability, T/C [21] was 85.8%. The viability, T/C [22] was 83.2%, the viability, T/C [23] was 96.4% and the viability, T/C [24] was 78.2%. It also gave a viability, T/C [25] of 78.7%, a viability, T/C [26] of 78.2% and a viability, T/C [27] of 76.7%. It also gave a viability, T/C [28] of 76.9%, a viability, T/C [29] of 87.7% and a viability, T/C [30] of 75.2%. For the same compound, the viability, T/C [31] was 65.1%, the viability, T/C [32] was 72.2% and the viability, T/C [33] was 70.9%. For the same compound, the viability, T/C [34] was 71.5%, the viability, T/C [35] was 78.7% and the viability, T/C [36] was 82.9%.

COc1ncnc(C2CC2)c1-c1ncc2cnn(Cc3ccc(-c4nc(C(F)(F)F)cn4C(C)C)cc3)c2n1 + Cc1cnc(CNC(=O)c2c(=O)c3ccc(N4CCCN(C)CC4)nc3n3c2sc2ccccc23)cn1 showed an IC50 (second compound 0.0316 µM) greater than 10 µM, an IC50 (second compound 0.1 µM) greater than 10 µM and an IC50 (second compound 0.316 µM) greater than 10 µM. For the same compound, the IC50 (second compound 1 µM) was greater than 10 µM, the IC50 (second compound 3.16 µM) was greater than 10 µM and the IC50 (second compound 10 µM) was greater than 10 µM. The viability, T/C [1] was 81.9%, the viability, T/C [2] was 77.1% and the viability, T/C [3] was 66.1%. It also gave a viability, T/C [4] of 79.7%, a viability, T/C [5] of 86.2% and a viability, T/C [6] of 89%. The viability, T/C [7] was 76.2%, the viability, T/C [8] was 95.5% and the viability, T/C [9] was 83%. It also gave a viability, T/C [10] of 84.2%, a viability, T/C [11] of 76.9% and a viability, T/C [12] of 84.5%. It also gave a viability, T/C [13] of 87.3%, a viability, T/C [14] of 91.2% and a viability, T/C [15] of 83.4%. For the same compound, the viability, T/C [16] was 87.9%, the viability, T/C [17] was 78.4% and the viability, T/C [18] was 86.4%. It also gave a viability, T/C [19] of 84.6%, a viability, T/C [20] of 81.4% and a viability, T/C [21] of 81.5%. The viability, T/C [22] was 74.5%, the viability, T/C [23] was 74.8% and the viability, T/C [24] was 89.6%. For the same compound, the viability, T/C [25] was 76.1%, the viability, T/C [26] was 65.1% and the viability, T/C [27] was 80.5%. The viability, T/C [28] was 62.4%, the viability, T/C [29] was 64.5% and the viability, T/C [30] was 75.5%. For the same compound, the viability, T/C [31] was 67.9%, the viability, T/C [32] was 60.9% and the viability, T/C [33] was 64.3%. It also gave a viability, T/C [34] of 62.9%, a viability, T/C [35] of 69.6% and a viability, T/C [36] of 65.2%.
